Results taken from publication PMC7407272, “Induction of Lysosome Membrane Permeabilization as a Therapeutic Strategy to Target Pancreatic Cancer Stem Cells” (Cancers, 2020).

Experiments:
Test in all cases: KINOMEscan
Type in all cases: binding
Settings in all cases: read-out: % Ctrl
[1] = molecular target: T1, GRK2 (Homo sapiens, UniProt P25098)
T1 construct: purchased DiscoveRx KINOMEscan

[2] = molecular target: T2, GAK (Homo sapiens, UniProt O14976)
T2 construct: purchased DiscoveRx KINOMEscan

[3] = molecular target: T3, MAP3K15 (Homo sapiens, UniProt Q6ZN16)
T3 construct: purchased DiscoveRx KINOMEscan

[4] = molecular target: T4, NEK3 (Homo sapiens, UniProt P51956)
T4 construct: purchased DiscoveRx KINOMEscan

[5] = molecular target: T5, RIOK3 (Homo sapiens, UniProt O14730)
T5 construct: purchased DiscoveRx KINOMEscan
T5 sequence (O14730 whole entry): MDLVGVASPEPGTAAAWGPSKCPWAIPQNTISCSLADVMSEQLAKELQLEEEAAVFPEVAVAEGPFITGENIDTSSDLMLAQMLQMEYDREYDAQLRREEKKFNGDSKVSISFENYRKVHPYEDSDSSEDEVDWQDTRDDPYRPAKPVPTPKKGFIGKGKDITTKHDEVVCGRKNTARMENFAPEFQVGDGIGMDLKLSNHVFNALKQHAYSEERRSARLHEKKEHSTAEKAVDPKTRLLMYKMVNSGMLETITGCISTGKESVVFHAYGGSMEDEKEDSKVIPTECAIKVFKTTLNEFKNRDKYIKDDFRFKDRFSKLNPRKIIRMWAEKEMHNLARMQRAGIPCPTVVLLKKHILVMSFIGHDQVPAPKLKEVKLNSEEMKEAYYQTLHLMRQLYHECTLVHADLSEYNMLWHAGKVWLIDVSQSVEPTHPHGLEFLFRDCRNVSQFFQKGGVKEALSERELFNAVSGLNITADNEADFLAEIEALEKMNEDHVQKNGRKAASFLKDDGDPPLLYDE

[6] = molecular target: T6, EGFR(E746-A750del) (Homo sapiens, UniProt P00533, DEL746-750)
T6 construct: purchased DiscoveRx KINOMEscan

[7] = molecular target: T7, HPK1 (Homo sapiens, UniProt Q92918)
T7 construct: purchased DiscoveRx KINOMEscan

[8] = molecular target: T8, MAP4K4 (Homo sapiens, UniProt O95819)
T8 construct: purchased DiscoveRx KINOMEscan

[9] = molecular target: T9, ALK(C1156Y) (Homo sapiens, UniProt Q9UM73, C1156Y)
T9 construct: purchased DiscoveRx KINOMEscan

[10] = molecular target: T10, ULK2 (Homo sapiens, UniProt Q8IYT8)
T10 construct: purchased DiscoveRx KINOMEscan

[11] = molecular target: T11, GCN2(KD2,S808G) (Homo sapiens, UniProt Q9P2K8, S808G)
T11 construct: purchased DiscoveRx KINOMEscan
T11 sequence (Q9P2K8 590-1001 S808G limits assumed): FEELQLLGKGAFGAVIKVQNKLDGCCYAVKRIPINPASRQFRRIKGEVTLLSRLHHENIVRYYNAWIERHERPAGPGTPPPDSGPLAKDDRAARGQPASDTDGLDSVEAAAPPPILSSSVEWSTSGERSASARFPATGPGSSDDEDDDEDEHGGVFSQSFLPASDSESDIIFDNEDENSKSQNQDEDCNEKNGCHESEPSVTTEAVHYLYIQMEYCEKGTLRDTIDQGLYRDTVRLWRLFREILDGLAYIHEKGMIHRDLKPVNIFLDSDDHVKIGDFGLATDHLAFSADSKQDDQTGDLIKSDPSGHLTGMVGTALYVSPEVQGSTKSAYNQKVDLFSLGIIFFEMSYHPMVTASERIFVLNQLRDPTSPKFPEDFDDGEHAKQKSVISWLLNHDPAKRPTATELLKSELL

[12] = molecular target: T12, TSSK3 (Homo sapiens, UniProt Q96PN8)
T12 construct: purchased DiscoveRx KINOMEscan
T12 sequence (Q96PN8 whole entry): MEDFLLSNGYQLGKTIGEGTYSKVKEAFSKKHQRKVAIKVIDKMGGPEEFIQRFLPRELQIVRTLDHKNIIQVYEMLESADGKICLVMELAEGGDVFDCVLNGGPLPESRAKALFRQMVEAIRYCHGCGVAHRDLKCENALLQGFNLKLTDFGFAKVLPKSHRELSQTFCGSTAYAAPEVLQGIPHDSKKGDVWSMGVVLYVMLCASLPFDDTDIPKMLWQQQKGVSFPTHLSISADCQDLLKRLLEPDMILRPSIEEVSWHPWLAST

[13] = molecular target: T13, CSNK2A2 (Homo sapiens, UniProt P19784)
T13 construct: purchased DiscoveRx KINOMEscan
T13 sequence (P19784 whole entry): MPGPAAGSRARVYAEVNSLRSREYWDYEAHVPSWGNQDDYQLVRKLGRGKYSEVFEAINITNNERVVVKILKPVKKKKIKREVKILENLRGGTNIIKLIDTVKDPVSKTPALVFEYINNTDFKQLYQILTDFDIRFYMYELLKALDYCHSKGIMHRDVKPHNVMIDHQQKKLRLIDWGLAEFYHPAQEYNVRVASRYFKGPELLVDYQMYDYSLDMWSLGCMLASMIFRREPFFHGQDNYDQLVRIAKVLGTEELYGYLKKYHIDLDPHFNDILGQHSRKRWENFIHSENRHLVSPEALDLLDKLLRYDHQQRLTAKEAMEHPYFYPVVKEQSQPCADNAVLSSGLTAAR

[14] = molecular target: T14, PIM2 (Homo sapiens, UniProt Q9P1W9)
T14 construct: purchased DiscoveRx KINOMEscan

[15] = molecular target: T15, FGFR3 (Homo sapiens, UniProt P22607)
T15 construct: purchased DiscoveRx KINOMEscan
T15 sequence (P22607 23-806): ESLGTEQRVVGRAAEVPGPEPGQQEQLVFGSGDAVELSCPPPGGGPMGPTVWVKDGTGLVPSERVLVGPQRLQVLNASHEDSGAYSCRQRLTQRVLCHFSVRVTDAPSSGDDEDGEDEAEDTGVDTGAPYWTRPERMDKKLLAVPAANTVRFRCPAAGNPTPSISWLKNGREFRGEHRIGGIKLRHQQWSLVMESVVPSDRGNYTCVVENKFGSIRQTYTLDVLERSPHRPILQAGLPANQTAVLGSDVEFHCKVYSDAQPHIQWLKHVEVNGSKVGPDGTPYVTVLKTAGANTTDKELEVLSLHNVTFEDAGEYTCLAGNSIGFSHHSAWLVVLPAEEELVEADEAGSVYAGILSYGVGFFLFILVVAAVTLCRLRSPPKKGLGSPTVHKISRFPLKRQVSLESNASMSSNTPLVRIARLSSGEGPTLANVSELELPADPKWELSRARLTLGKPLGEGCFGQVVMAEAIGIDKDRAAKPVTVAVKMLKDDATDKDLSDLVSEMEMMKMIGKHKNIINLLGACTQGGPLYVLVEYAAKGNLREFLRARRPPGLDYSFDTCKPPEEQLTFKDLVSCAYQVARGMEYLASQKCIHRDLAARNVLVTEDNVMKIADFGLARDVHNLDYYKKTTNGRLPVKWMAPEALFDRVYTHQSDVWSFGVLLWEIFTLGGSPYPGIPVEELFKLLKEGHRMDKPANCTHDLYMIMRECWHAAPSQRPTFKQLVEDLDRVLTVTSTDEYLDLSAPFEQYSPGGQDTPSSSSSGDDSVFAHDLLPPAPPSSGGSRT

[16] = molecular target: T16, RIPK2 (Homo sapiens, UniProt O43353)
T16 construct: purchased DiscoveRx KINOMEscan

[17] = molecular target: T17, PRKD1 (Homo sapiens, UniProt Q15139)
T17 construct: purchased DiscoveRx KINOMEscan

[18] = molecular target: T18, FGFR3(G697C) (Homo sapiens, UniProt P22607, G697C)
T18 construct: purchased DiscoveRx KINOMEscan
T18 sequence (P22607 23-806 G697C): as the sequence (P22607 23-806) above, with G675C counted along it

[19] = molecular target: T19, CSF1R (Homo sapiens, UniProt P07333)
T19 construct: purchased DiscoveRx KINOMEscan
T19 sequence (P07333 20-972): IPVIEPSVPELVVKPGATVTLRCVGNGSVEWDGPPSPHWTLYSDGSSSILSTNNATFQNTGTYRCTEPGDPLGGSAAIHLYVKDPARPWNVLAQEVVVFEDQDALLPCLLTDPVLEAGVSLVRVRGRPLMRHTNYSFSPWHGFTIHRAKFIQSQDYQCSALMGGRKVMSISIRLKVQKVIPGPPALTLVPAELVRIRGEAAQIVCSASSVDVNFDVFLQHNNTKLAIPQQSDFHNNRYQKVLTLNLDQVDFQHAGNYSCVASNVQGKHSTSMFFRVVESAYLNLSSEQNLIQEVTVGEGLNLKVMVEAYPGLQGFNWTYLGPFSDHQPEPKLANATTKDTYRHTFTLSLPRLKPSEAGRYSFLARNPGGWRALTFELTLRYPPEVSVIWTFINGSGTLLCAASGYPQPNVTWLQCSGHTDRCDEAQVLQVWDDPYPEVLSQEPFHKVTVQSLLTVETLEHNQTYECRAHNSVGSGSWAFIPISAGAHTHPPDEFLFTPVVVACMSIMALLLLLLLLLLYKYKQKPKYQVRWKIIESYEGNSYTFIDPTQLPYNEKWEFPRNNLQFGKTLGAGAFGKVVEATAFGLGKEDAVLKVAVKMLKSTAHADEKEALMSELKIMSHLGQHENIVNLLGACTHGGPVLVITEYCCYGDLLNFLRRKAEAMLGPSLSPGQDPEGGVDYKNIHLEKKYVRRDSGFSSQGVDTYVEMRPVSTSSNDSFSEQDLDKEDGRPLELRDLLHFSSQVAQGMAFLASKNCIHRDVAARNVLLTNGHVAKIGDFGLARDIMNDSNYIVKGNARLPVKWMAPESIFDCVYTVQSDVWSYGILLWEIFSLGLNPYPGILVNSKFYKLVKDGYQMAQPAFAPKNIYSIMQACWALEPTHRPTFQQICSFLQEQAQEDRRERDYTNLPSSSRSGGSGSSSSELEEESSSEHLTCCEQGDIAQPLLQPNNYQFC

[20] = molecular target: T20, KIT(V559D,V654A) (Homo sapiens, UniProt P10721, V559D/V654A)
T20 construct: purchased DiscoveRx KINOMEscan

[21] = molecular target: T21, DLK (Homo sapiens, UniProt Q12852)
T21 construct: purchased DiscoveRx KINOMEscan

[22] = molecular target: T22, CDC2L2 (Homo sapiens, UniProt Q9UQ88)
T22 construct: purchased DiscoveRx KINOMEscan

[23] = molecular target: T23, EGFR(G719C) (Homo sapiens, UniProt P00533, G719C)
T23 construct: purchased DiscoveRx KINOMEscan

[24] = molecular target: T24, PRKCH (Homo sapiens, UniProt P24723)
T24 construct: purchased DiscoveRx KINOMEscan

[25] = molecular target: T25, SGK2 (Homo sapiens, UniProt Q9HBY8)
T25 construct: purchased DiscoveRx KINOMEscan

[26] = molecular target: T26, MKNK1 (Homo sapiens, UniProt Q9BUB5)
T26 construct: purchased DiscoveRx KINOMEscan
T26 sequence (Q9BUB5 whole entry): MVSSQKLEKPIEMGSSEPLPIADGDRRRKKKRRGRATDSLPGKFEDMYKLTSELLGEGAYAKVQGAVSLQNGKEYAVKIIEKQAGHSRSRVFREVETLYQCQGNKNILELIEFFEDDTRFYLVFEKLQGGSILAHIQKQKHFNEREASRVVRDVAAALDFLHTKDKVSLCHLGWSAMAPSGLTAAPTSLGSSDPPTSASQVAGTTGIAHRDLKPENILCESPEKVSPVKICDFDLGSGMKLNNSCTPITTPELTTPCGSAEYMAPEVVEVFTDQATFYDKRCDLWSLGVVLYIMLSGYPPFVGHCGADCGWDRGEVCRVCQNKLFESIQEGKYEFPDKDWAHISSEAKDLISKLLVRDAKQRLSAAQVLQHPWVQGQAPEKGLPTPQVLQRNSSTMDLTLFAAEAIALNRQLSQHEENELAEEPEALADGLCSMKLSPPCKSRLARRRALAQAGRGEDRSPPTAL

[27] = molecular target: T27, VRK2 (Homo sapiens, UniProt Q86Y07)
T27 construct: purchased DiscoveRx KINOMEscan

[28] = molecular target: T28, PDGFRB (Homo sapiens, UniProt P09619)
T28 construct: purchased DiscoveRx KINOMEscan

[29] = molecular target: T29, CDK7 (Homo sapiens, UniProt P50613)
T29 construct: purchased DiscoveRx KINOMEscan

[30] = molecular target: T30, AAK1 (Homo sapiens, UniProt Q2M2I8)
T30 construct: purchased DiscoveRx KINOMEscan

[31] = molecular target: T31, IKK-beta (Homo sapiens, UniProt O14920)
T31 construct: purchased DiscoveRx KINOMEscan

[32] = molecular target: T32, IRAK1 (Homo sapiens, UniProt P51617)
T32 construct: purchased DiscoveRx KINOMEscan

[33] = molecular target: T33, EPHA6 (Homo sapiens, UniProt Q9UF33)
T33 construct: purchased DiscoveRx KINOMEscan

[34] = molecular target: T34, ERBB2 (Homo sapiens, UniProt P04626)
T34 construct: purchased DiscoveRx KINOMEscan

[35] = molecular target: T35, MEK1 (Homo sapiens, UniProt Q02750)
T35 construct: purchased DiscoveRx KINOMEscan

[36] = molecular target: T36, PLK4 (Homo sapiens, UniProt O00444)
T36 construct: purchased DiscoveRx KINOMEscan

[37] = molecular target: T37, DYRK1B (Homo sapiens, UniProt Q9Y463)
T37 construct: purchased DiscoveRx KINOMEscan

[38] = molecular target: T38, LTK (Homo sapiens, UniProt P29376)
T38 construct: purchased DiscoveRx KINOMEscan

[39] = molecular target: T39, CAMK2D (Homo sapiens, UniProt Q13557)
T39 construct: purchased DiscoveRx KINOMEscan

[40] = molecular target: T40, AMPK-alpha1 (Homo sapiens, UniProt Q13131)
T40 construct: purchased DiscoveRx KINOMEscan

[41] = molecular target: T41, KIT(D816V) (Homo sapiens, UniProt P10721, D816V)
T41 construct: purchased DiscoveRx KINOMEscan

[42] = molecular target: T42, JNK3 (Homo sapiens, UniProt P53779)
T42 construct: purchased DiscoveRx KINOMEscan

[43] = molecular target: T43, EGFR(L858R) (Homo sapiens, UniProt P00533, L858R)
T43 construct: purchased DiscoveRx KINOMEscan
T43 sequence (P00533 25-1210 L858R): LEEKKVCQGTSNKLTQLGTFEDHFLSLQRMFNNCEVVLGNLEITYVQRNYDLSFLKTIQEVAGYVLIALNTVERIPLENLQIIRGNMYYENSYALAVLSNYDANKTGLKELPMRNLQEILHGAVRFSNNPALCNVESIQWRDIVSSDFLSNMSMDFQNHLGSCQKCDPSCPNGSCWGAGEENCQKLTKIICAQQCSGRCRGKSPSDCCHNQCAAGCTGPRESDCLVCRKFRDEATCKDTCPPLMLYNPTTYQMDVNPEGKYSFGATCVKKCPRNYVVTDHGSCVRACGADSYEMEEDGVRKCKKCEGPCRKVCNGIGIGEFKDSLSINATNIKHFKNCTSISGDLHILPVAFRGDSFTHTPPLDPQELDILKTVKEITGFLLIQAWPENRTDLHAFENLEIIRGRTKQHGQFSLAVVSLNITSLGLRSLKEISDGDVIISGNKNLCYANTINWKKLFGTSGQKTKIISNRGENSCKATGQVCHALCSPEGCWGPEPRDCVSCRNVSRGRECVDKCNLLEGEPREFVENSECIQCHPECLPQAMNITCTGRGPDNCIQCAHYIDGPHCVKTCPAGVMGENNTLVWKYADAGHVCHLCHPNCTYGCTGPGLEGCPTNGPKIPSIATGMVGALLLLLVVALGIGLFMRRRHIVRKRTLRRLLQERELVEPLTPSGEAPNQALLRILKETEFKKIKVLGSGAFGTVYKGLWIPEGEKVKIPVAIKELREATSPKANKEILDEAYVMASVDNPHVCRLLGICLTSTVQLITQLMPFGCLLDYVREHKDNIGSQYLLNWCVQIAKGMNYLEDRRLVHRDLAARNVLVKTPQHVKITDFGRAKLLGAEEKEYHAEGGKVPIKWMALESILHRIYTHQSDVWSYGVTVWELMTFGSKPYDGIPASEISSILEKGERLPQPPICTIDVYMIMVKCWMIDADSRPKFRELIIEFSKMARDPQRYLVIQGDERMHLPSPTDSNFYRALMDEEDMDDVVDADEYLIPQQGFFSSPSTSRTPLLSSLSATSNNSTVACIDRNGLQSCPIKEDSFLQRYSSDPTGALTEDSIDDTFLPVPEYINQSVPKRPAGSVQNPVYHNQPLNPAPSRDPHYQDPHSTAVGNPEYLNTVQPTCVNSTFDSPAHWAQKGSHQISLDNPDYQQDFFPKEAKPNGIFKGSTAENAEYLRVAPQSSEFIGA

[44] = molecular target: T44, NEK5 (Homo sapiens, UniProt Q6P3R8)
T44 construct: purchased DiscoveRx KINOMEscan

**Q.** Which remaining binding at 1 µM [1] does the source give for CN1CCC(CNc2ccc3ncc(C(=O)Nc4cccc(OC(F)(F)F)c4)n3n2)CC1 [Cpd 2] here?
**A.** 79%

**Q.** And the remaining binding at 1 µM [2]?
**A.** 89%

**Q.** What about the remaining binding at 1 µM [3] of the same molecule?
**A.** 100%

**Q.** What about the remaining binding at 1 µM [4] of the same molecule?
**A.** 100%

**Q.** What about the remaining binding at 1 µM [5] of the same molecule?
**A.** 78%

**Q.** What about the remaining binding at 1 µM [6] of the same molecule?
**A.** 77%

**Q.** And the remaining binding at 1 µM [7]?
**A.** 92%

**Q.** What about the remaining binding at 1 µM [8] of the same molecule?
**A.** 89%

**Q.** And the remaining binding at 1 µM [9]?
**A.** 85%

**Q.** And the remaining binding at 1 µM [10]?
**A.** 100%

**Q.** What about the remaining binding at 1 µM [11] of the same molecule?
**A.** 73%

**Q.** What about the remaining binding at 1 µM [12] of the same molecule?
**A.** 95%

**Q.** What about the remaining binding at 1 µM [13] of the same molecule?
**A.** 39%

**Q.** What about the remaining binding at 1 µM [14] of the same molecule?
**A.** 72%

**Q.** And the remaining binding at 1 µM [15]?
**A.** 98%

**Q.** And the remaining binding at 1 µM [16]?
**A.** 100%

**Q.** What about the remaining binding at 1 µM [17] of the same molecule?
**A.** 98%

**Q.** And the remaining binding at 1 µM [18]?
**A.** 99%

**Q.** And the remaining binding at 1 µM [19]?
**A.** 100%

**Q.** What about the remaining binding at 1 µM [20] of the same molecule?
**A.** 91%

**Q.** And the remaining binding at 1 µM [21]?
**A.** 100%

**Q.** What about the remaining binding at 1 µM [22] of the same molecule?
**A.** 99%

**Q.** And the remaining binding at 1 µM [23]?
**A.** 82%

**Q.** What about the remaining binding at 1 µM [24] of the same molecule?
**A.** 99%

**Q.** What about the remaining binding at 1 µM [25] of the same molecule?
**A.** 100%

**Q.** And the remaining binding at 1 µM [26]?
**A.** 86%

**Q.** And the remaining binding at 1 µM [27]?
**A.** 100%

**Q.** And the remaining binding at 1 µM [28]?
**A.** 92%

**Q.** What about the remaining binding at 1 µM [29] of the same molecule?
**A.** 70%

**Q.** What about the remaining binding at 1 µM [30] of the same molecule?
**A.** 89%

**Q.** What about the remaining binding at 1 µM [31] of the same molecule?
**A.** 100%

**Q.** What about the remaining binding at 1 µM [32] of the same molecule?
**A.** 100%

**Q.** And the remaining binding at 1 µM [33]?
**A.** 86%

**Q.** And the remaining binding at 1 µM [34]?
**A.** 88%

**Q.** And the remaining binding at 1 µM [35]?
**A.** 95%

**Q.** What about the remaining binding at 1 µM [36] of the same molecule?
**A.** 82%

**Q.** What about the remaining binding at 1 µM [37] of the same molecule?
**A.** 92%

**Q.** And the remaining binding at 1 µM [38]?
**A.** 93%

**Q.** And the remaining binding at 1 µM [39]?
**A.** 99%

**Q.** And the remaining binding at 1 µM [40]?
**A.** 100%

**Q.** What about the remaining binding at 1 µM [41] of the same molecule?
**A.** 89%

**Q.** And the remaining binding at 1 µM [42]?
**A.** 100%

**Q.** What about the remaining binding at 1 µM [43] of the same molecule?
**A.** 94%

**Q.** What about the remaining binding at 1 µM [44] of the same molecule?
**A.** 98%
